# Entries after “also recorded” stand apart in the source; their conditions may differ.
# Legend:
# [1] = test system: German cockroaches (Blattella germanica); settings: cited from earlier work
# Text: (§1) An ideal bioinsecticide would be specific for the targeted insect pest, without harming beneficial insects. Although most spiders are generalist predators that hunt many types of insect prey, some spider-venom peptides have been isolated that are specific to certain insect orders or even to certain species within an insect order. […] Another ex ...
# [2] = test system: American cockroaches (Periplaneta americana); settings: at much higher doses; cited from earlier work
# Text: as §1
# [3] = test system: BgNaV1 over PaNaV1 channels; settings: cited from earlier work
# Text: The selectivity of Ae1a for BgNaV1 over PaNaV1 channels is reminiscent of the selectivity reported for the insecticidal spider-venom peptide μ-DGTX-Dc1a (Dc1a) isolated from the American desert spider Diguetia canities. In order to explore the molecular basis of this species selectivity we examined the ability of Ae1a to inhibit the activity of a BgNaV1 channel containing two mutations that were previously reported to determine sensitivity to Dc1a[18].
# [4] = test system: diamondback moth Plutella xylostella; test: Injection into larvae of the diamondback moth (data not shown); type: in vivo; settings: injected into larvae of Plutella xylostella
# [5] = test system: cotton bollworms (H. armigera larvae); test: Injection into cotton bollworm larvae; type: in vivo, Helicoverpa armigera
# Experimental: We examined the effect of rAe1a on cotton bollworms (i.e., larvae of H. armigera) supplied by AgBiTech (Glenvale, QLD, Australia). […] Larvae were kept on artificial diet (AgBiTech) in standard 6-well plates and their mass was measured 24, 48 and 72 h after the injection.
# [6] = test system: triatomine bug Rhodnius prolixus; test: Toxicity by injection into triatomine bugs; type: in vivo; settings: for activity against R. prolixus (in words): injection
# Experimental: (§2) Figure 3 Insecticidal effects of Ae1a. (A) rAe1a was injected into blowflies (Lucilia cuprina) and paralytic effects were measured 0.5 and 1 h after injection. (B) rAe1a was injected into fruit flies (Drosophila melanogaster) and paralytic and lethal effects were measured at 3 h and 24 h post injection. (C) rAe1a and Hv1a were injected into the triatomine bug Rhodnius prolixus and lethality was measured 24 h after injection. PD50 and LD50 values were calculated as described previously.
# Toxicity against R. prolixus was measured using the method described by Luna et al.[49] with some modifications. Microinjection needles, made by pulling borosilicate glass capillaries with a needle puller (Narishige, PC-10, Japan), were fitted onto a Nanoject II auto injector (Drummond Scientific, Broomall, PA, USA). Ae1a, Hv1a, or PBS (n = 7–10 per dose, 138 nl volume) were injected into the thorax of second instar R. prolixus nymphs (average mass 1.4 mg) via articulation of prothoracic coxa. Synthetic Hv1a was kindly supplied by Vestaron Corporation (Kalamazoo, MI, USA). Three separate sets of experiments were performed for each compound. After injection, bugs were transferred to plastic cages and stored at 26 °C with 50% relative humidity. All bugs were checked at 24 h post-injection for signs of paralysis or lethality.
# BgNaV1 = test: Two-electrode voltage-clamp of BgNaV1 in Xenopus oocytes; type: cell-based, Blattella germanica
# Experimental: (§3) Figure 4 Effect of rAe1a on BgNav1 and hNaV1.5. Left panels: Representative traces showing the effect of rAe1a (200 nM) on sodium currents mediated by (A) BgNaV1, (C) mutant BgNaV1 (H805Y/D812E), and (E) hNaV1.5 heterologously expressed in Xenopus oocytes. Currents were evoked by a depolarization to −15 mV, with black and red traces corresponding to the current before and after toxin application, respectively. Right panels: Effect of 200 nM rAe1a on normalized conductance-voltage (G–V) relationships (G/Gmax) and steady-state inactivation (SSI) relationships (I/Imax) for (B) BgNaV1, (D) mutant BgNaV1, and (F) hNaV1.5. […]
# (§4) cRNA encoding BgNaV1 from Blattella germanica[50] and hNaV1.5 (Origene, Rockville, MD, USA) was synthesized using T7 polymerase (mMessage mMachine kit, Life Technologies, USA) after linearizing the fully-sequenced DNA. […] Oocytes were incubated at 17 °C in 96 mM NaCl, 2 mM KCl, 5 mM HEPES, 1 mM MgCl2 and 1.8 mM CaCl2, 50 μg/ml gentamycin, pH 7.6 with NaOH, and currents were measured 1–2 days after cRNA injection using the two-electrode voltage-clamp recording technique (OC-725C, Warner Instruments, Hamden, CT, USA) with a 150-μl recording chamber. […] After addition of rAe1a to the recording chamber, equilibration between toxin and channel was monitored using weak depolarizations elicited at 5-s intervals. […]
# [7] = test system: fruit fly Drosophila melanogaster; test: Screen of spider venoms / native peptide by injection into fruit flies; type: in vivo; settings: injected into D. melanogaster
# Experimental: We used the fruit fly Drosophila melanogaster to rapidly screen spider venoms for insecticidal activity. […] Microinjection of venoms or toxins into D. melanogaster has the advantage that it requires only small volumes (50 nl per fly), which enables the study of scarce venoms from small venomous animals. Given the worldwide availability of Drosophila and the general sensitivity of flies towards spider toxins, this assay provides a convenient method for determining the insecticidal potency of venom compounds. However, as discussed below, it should not be used in isolation but rather as part of a taxonomically diverse screening protocol that aims to uncover potentially complex phyletic specificities.
# [8] = test system: mutant BgNaV1 (H805Y/D812E); test: Two-electrode voltage-clamp of mutant BgNaV1 (H805Y/D812E) in Xenopus oocytes; type: cell-based, Blattella germanica; settings: BgNaV1 H805Y/D812E versus wild-type BgNaV1
# Experimental: as §3, §4
# [9] = test system: NaV channel currents in dorsal unpaired median (DUM) neurons (PaNaV1); test: Whole-cell patch-clamp of NaV channel currents in DUM neurons; type: cell-based, Periplaneta americana; settings: P. americana DUM neurons
# Experimental: Figure 5 Effect of rAe1a on NaV channel currents in P. americana DUM neurons. (A) Representative traces showing the effect of 1 μM rAe1a on INa mediated by PaNaV1 in P. americana DUM neurons. Currents were evoked by depolarizations to −10 mV, from a holding potential of −90 mV (panel B), with black and red traces corresponding to the current before, and 5 min after, toxin application, respectively. (C) Time course of rAe1a actions on PaNaV1. Peak INa were recorded at a rate of 0.1 Hz before (black circles), and for 5 min during, application of 1 μM rAe1a (red circles) and normalized against maximal peak INa (−1/Imax; n = 3). (D) GNa-V relationships in P. americana DUM neurons. A voltage protocol with depolarisation steps from −90 mV to +40 mV in 10 mV increments (lower panel B) was used to generate families of INa. The normalized conductance-voltage (GNa-V) relationship (G/Gmax) is shown before (black circles) and after (red circles) a 5 min perfusion with 1 μM rAe1a (n = 4). […]
# Ionic currents were recorded from DUM neurons in voltage-clamp mode using the whole-cell patch-clamp technique employing version 10.2 of the pCLAMP data acquisition system (Molecular Devices, Sunnyvale, CA, USA). […] Liquid junction potentials were calculated using JPCALC, and all data were compensated for these values. […] Peak current amplitude was analysed offline using AxoGraph X v1.5.3 (Molecular Devices). […]
# [10] = test system: sheep blowflies (Lucilia cuprina); test: Insecticidal activity by injection into sheep blowflies (PD50); type: in vivo
# Experimental: as §2
# rAe1a was dissolved in insect saline[45] and injected into the ventro-lateral thoracic region of adult sheep blowflies (L. cuprina; mass 26.8–29.7 mg) as described previously. A maximum of 2 μl was injected per fly using a 1.0 ml Terumo Insulin syringe with 29-gauge needle fitted to an Arnold hand micro-applicator (Burkard Manufacturing Co. Ltd., Rickmansworth, England). After injection, flies were individually housed in 2-ml tubes and paralytic effects determined after 0.5, 1 and 24 h. A total of three assays were performed, and for each assay nine doses of rAe1a (n = 10 flies per dose) and the appropriate control (insect saline; n = 20 flies each) were used. PD50 values were calculated as described.
# [11] = test system: fruit flies (Drosophila melanogaster); test: Insecticidal activity by injection into fruit flies (PD50, LD50); type: in vivo; settings: D. melanogaster
# Experimental: as §2
# The effect on rAe1a on fruit flies was determined using a previously described method. rAe1a was dissolved in 100 mM ammonium acetate buffer (pH 6.1) and injected into the lateral thoracic region of adult female D. melanogaster using a glass capillary connected with silicone tubing to a 10 ml plastic syringe. The injection volume per fruit fly was calibrated to be 50 nl for each glass capillary. After injection, fruit flies were housed in 68-ml plastic tubes (containing a cotton piece soaked in 0.5% sucrose solution) in groups of 10 (all receiving the same treatment) and monitored for signs of paralysis or lethality at 3 and 24 h post-injection.
# hNaV1.5 = test: Two-electrode voltage-clamp of hNaV1.5 in Xenopus oocytes; type: cell-based; settings: hNaV1.5 + human β1 in Xenopus oocytes, 200 nM, n = 3–5
# Experimental: as §3, §4
# honeybees = settings: cited from earlier work
# Text: as §1
# [12] = test system: wide range of insect pest species; settings: cited from earlier work
# Text: as §1
# [13] = test system: insect voltage-gated calcium channels; settings: cited from earlier work
Substance,lethality (in words) [1],adverse effects (in words) [2],selectivity for BgNaV1 over PaNaV1 (in words) [3],lethality (in words) [4],adverse effects / resistance (in words) [5],activity against R. prolixus (in words) [6],inhibition of BgNaV1 currents (in words) (BgNaV1),lethality / toxicity (in words) [7],sensitivity of mutant channel to toxin (in words) [8],effect on NaV channel currents in DUM neurons (in words) [9],paralysis (in words) ([10]; L. cuprina),"PD50 (summary value) ([10]; sheep blowflies, approximate value in discussion)",paralysis / lethality (in words) [11],effect on hNaV1.5 currents and gating (in words) (hNaV1.5),activity against honeybees (in words) (honeybees),lethality (in words) [12],calcium channel inhibition (in words) [13],"LD50 ([6]; R. prolixus second instar nymphs, injection into thorax, 24 h after injection, n = 7–10 per dose, three experiments) [pmol/g]"
μ-DGTX-Dc1a,lethal,does not induce adverse effects,selectivity,–,–,–,–,–,–,–,–,–,–,–,–,–,–,–
μ-theraphotoxin-Ae1a,–,–,–,lethal,no adverse effects; also recorded: resistant,inactive,potently inhibits,lethal,much less sensitive,failed to significantly affect sodium currents; also recorded: no significant affect,rapid but reversible paralysis; also recorded: reverses within 24 h,~ 950 pmol/g,lethal; also recorded: irreversible paralysis leading to death; also recorded: highly sensitive,completely inactive,–,–,–,–
ω-hexatoxin-Hv1a,–,–,–,–,–,highly susceptible,–,–,–,–,–,–,–,–,inactive,lethal,selective inhibitor,147 ± 37
